{"source": "patent US20090036507A1", "about": "“BIS (CYANOPHENYL) METHYL-TRIAZOLE FOR USE IN PREVENTION OF BREAST CANCER” (priority 2001, published 2009)", "key": {"[1]": {"test_system": "estrogen receptor (ER), progesterone receptor (PR), cyclin D1 and proliferating cell nuclear antigen (PCNA)", "test": "Western blot of ER, PR, cyclin D1 and PCNA protein levels in mammary tissues", "type": "in vivo, mice", "details": "5 μg", "description": "(§1) Aged (about 16-20 weeks old) virgin aromatase transgenic females were used to investigate the effect of the aromatase inhibitor, COMPOUND I, as a chemopreventive agent against the preneoplastic and neoplastic changes induced in mammary glands of these mice. In this study, age-matched transgenic females were divided into four groups, one group (n=10) served as control group, the other groups received daily s.c. injection of COMPOUND I and three different doses; 0.25, 05, 1.0 μg COMPOUND I per animal in 100 μl of 0.3% hydroxy propyl cellulose (in phospate buffered saline). Control animals were given s.c. injection of vehicle. COMPOUND I was a gift from Drs. Ajay Bhatnagar and Dean Evans of Novartis Pharma (Basel, Switzerland). At the end of the 6-week treatment, mammary glands were removed and one gland each was used for histological analysis. All other glands were pooled then used for biochemical analysis as described below. Along with the mammary glands, uterus and ovaries was collected for biochemical and histological analyses.\n(§2) To isolate proteins from mammary gland and uterine tissue of both control and COMPOUND I-treated aromatase animals, the tissues were homogenized in lysis buffer. Equal amounts (60 ug) of protein from each sample was separated on a denaturing polyacrylamide gel and transferred to a nylon membrane. […]"}, "[2]": {"test_system": "follicle stimulating hormone", "test": "Serum FSH levels (double antibody radioimmunoassay)", "type": "in vivo, mice", "text": "as §1, with “[…]; […]” for “other groups received daily s.c. injection of COMPOUND I and three different doses; 0.25, 05, 1.0 μg COMPOUND I per animal in 100 μl of 0.3% hydroxy”\nBlood from both control and COMPOUND I-treated groups was collected by cardiac puncture directly before harvesting tissues. Serum concentrations of estradiol were measured by double antibody radioimmunoassay using commercially available reagents (Diagnostic Products Corp., Los Angeles, Calif.). […] FSH levels were measured using a standard double antibody radioimmunoassay. […] Differences in mean estradiol or FSH levels were compared, and significance was determined using paired Student's t-test."}, "lactoferrin, ER, and PR": {"test_system": "lactoferrin, ER, and PR", "test": "Western blot of lactoferrin, ER and PR protein levels in uterus tissue", "type": "in vivo, mice", "details": "1.0 μg per day per animal", "description": "as §1, §2"}, "[3]": {"test_system": "aromatase transgenic mice", "test": "Effect on uterus and ovary histo-morphological features / normal endocrinological functions", "type": "in vivo", "description": "The skin containing the mammary fat pads was fixed in 10% neutral buffered formalin for at least 24 h. The mammary glands were then dissected free from skin and processed for histological examinations (D. Medina, Preneoplastic lesions in mouse mammary tumorigenesis, Methods Cancer Res. 7 (1973) 3-53. 514). Routine section of mammary tissues, uterus and ovary were prepared after fixation by embedding in paraf.n, sectioning at 5 μM, and staining with H&E. To immunolocalize aromatase expression, 5 μM thick sections of aromatase and nontransgenic mammary gland tissue were used. After deparaffination and rehydration in xylene and ethanol, nonspecific sites were blocked by incubating with 1% normal goat serum in 0.05M Tris-HCl buffer. After decanting the reagents, the sections were covered with rabbit polyclonal antibody to rat aromatase synthetic peptide in 1:100 dilution (aromatase antibody was obtained from Dr. Evan Simpson, University of Texas Southwestern Medical Center, Dallas, Tex.; currently at Prince Henry's Institute, Clayton, Vic., Australia). The samples were incubated overnight at 4° C. in a humidied chamber. After three washings with 0.05M Tris-HCl buffer, the slides were incubated with alkaline phosphate conjugated secondary antibody for 30 min at room temperature and washings were repeated and sections were incubated with 1% fast red/naphthol AS phospate solution for 5 min. Sections were washed again and cover slipped and staining pattern was observed using light microscope.\nAged (about 16-20 weeks old) virgin aromatase transgenic females were used to investigate the effect of the aromatase inhibitor, COMPOUND I, as a chemopreventive agent against the preneoplastic and neoplastic changes induced in mammary glands of these mice. In this study, age-matched transgenic females were divided into four groups, one group (n=10) served as control group, the other groups received daily s.c. injection of COMPOUND I and three different doses; 0.25, 05, 1.0 μg COMPOUND I per animal in 100 μl of 0.3% hydroxy propyl cellulose (in phospate buffered saline). […]"}, "[4]": {"test_system": "aromatase transgenic mice", "details": "5 μg/mouse/daily, previous studies; cited from earlier work"}, "estradiol": {"test_system": "estradiol", "test": "Serum estradiol levels (double antibody radioimmunoassay)", "type": "in vivo, mice", "details": "for circulating estrogen (estradiol) level: control 12.5 pg/ml, no significant difference", "description": "as §1\nBlood from both control and COMPOUND I-treated groups was collected by cardiac puncture directly before harvesting tissues. Serum concentrations of estradiol were measured by double antibody radioimmunoassay using commercially available reagents (Diagnostic Products Corp., Los Angeles, Calif.). […] Assaying increasing volumes of serum from 50 to 200 μl produced a displacement line parallel to the standard curve. Intra-assay and inter assay coefficients of variation averaged <10.0 and 6.7%, respectively. FSH levels were measured using a standard double antibody radioimmunoassay. Purified FSH obtained from NIH hormone resource was used as a standard. Differences in mean estradiol or FSH levels were compared, and significance was determined using paired Student's t-test."}}}
{"smiles": "N#Cc1ccc(C(c2ccc(C#N)cc2)n2cncn2)cc1", "note": "[COMPOUND I]", "values": [{"measurement": "level of PCNA, reduction", "setting": "[1]", "result": 50, "unit": "%"}, {"measurement": "circulating FSH level", "setting": "[2]; 0.5 μg, no significant difference to control", "result": 200, "unit": "ng/mL"}, {"measurement": "circulating FSH level", "setting": "[2]; 5.0 μg, difference to control very significant (paired Student's t-test)", "result": 480, "unit": "ng/mL"}, {"measurement": "decrease in expression of the uterine marker lactoferrin vs control", "setting": "lactoferrin, ER, and PR", "result": 1.8, "unit": "fold"}, {"measurement": "effect on histo-morphological features of the uterus and ovary", "setting": "[3]; 0.25 μg per day per animal", "result": "no effect"}, {"measurement": "effect on histo-morphological features of the uterus and ovary", "setting": "[3]; 0.5 μg per day per animal", "result": "no effect"}, {"measurement": "effect on histo-morphological features of the uterus and ovary", "setting": "[3]; 1 μg per day per animal", "result": "no effect"}, {"measurement": "effect on normal endocrinological functions", "setting": "[4]", "result": "affected some normal endocrinological functions"}, {"measurement": "circulating estrogen (estradiol) level", "setting": "estradiol; 0.25 μg per day per animal", "result": 12.1, "unit": "pg/mL"}, {"measurement": "circulating estrogen (estradiol) level", "setting": "estradiol; 0.5 μg per day per animal", "result": 12.5, "unit": "pg/mL"}, {"measurement": "circulating levels of estradiol", "setting": "estradiol; dose of 0.5 μg per day per animal as printed in last sentence of b103", "result": 2, "unit": "pg/mL"}]}
